Data set [1] deals with Raw 264.7 cell line. The experiment in a line: NO scavenging activity in LPS-treated immune cells (Griess reagent). It is filed as cell-based. The conditions noted are these: Mus musculus, RAW264.7, Raw 264.7, LPS 500 ng/mL, 24 hours, read-out: NO Scavenging Activity (%) (Mean±SD).
Data set [2] has as its system IL-6 (Interleukin-6). Put plainly: Inhibition of inflammatory cytokine secretion in LPS-treated immune cells (IL-6 sandwich ELISA). It is filed as cell-based. The settings on record: Mus musculus, RAW264.7, Raw 264.7, LPS 500 ng/mL, 24 hours, read-out: IL-6 Reduction Activity (%) (Mean±SD). How it is done:
Raw 264.7 cell line was seeded in a 48-well plate at a density of 8×10^4 cells/well, and cultured at 37°C in a DMEM medium including 10% FBS, 100 U/mL of penicillin and 100 µg/mL of streptomycin.
The medium was cultured overnight, and then replaced with a fresh medium including 10 µM of the pharmaceutical composition sensitive to nitrogen monoxide including the compound of each of Examples 1 and 11 to 13 and 500 ng/mL of LPS, and the fresh medium was cultured again for another 24 hours.
Lastly, the supernatant was collected, and then the level of IL-6 (Interleukin-6) expression was analyzed using a Sandwich enzyme-linked immunosorbent assay (ELISA). Specifically, a standard solution and 50 µL of the diluted supernatant were introduced to each well of a well plate coated with an antibody specific to IL-6, and after binding IL-6 to the immobilized antibody, the well was washed with a washing buffer, followed by a reaction with HRP as a secondary antibody for 30 minutes at room temperature. The well was washed three times with a washing buffer, then color was developed using TMB (3,3', 5,5'-tetramethyl benzidine) as a substrate, and the reaction was stopped using 1 M sulfuric acid to measure the degree of color development at an absorbance of 450 nm.
A general note: ELISA stands for enzyme-linked immunosorbent assay.

Data set [3] has as its system splenocytes. The experiment in a line: NO scavenging activity in Concanavalin A-treated splenocytes (Griess assay). It is filed as cell-based, C57BL/6 mouse. The settings on record: Mus musculus, Splenocyte, Concanavalin A 5 µg/mL, 72 hours, read-out: NO Scavenging Activity (%) (Mean±SD). In outline:
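Splenocytes from 8-week-old C57BL/6 mice at 5×10^6 cells/mL in RPMI 1640/10% FBS, stimulated with Concanavalin A (5 µg/mL) plus […] test composition added at plating. After 72 h culture, remaining NO in supernatant measured by Griess assay.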
In general terms: Griess reagent forms a coloured azo dye with nitrite.

Data set [4] concerns splenocytes. Put plainly: Inhibitory activity on cell proliferation in splenocytes (CCK-8 analysis). It is filed as cell-based, C57BL/6 mouse. The settings on record: Mus musculus, Splenocyte, Concanavalin A 5 µg/mL, 72 hours, read-out: Inhibitory Activity on Cell Proliferation (%) (Mean±SD).
Data set [5] can be described thus: in vivo. The method, then: Specifically, the experimental animals were twelve six-week-old C57BL/6 male mice. The experimental animals were housed in polycarbonate cages in groups of four, and had free access to food and water. The animal housing room was maintained at a temperature of 20±1°C and humidity of about 50±5%, with a constant 12-hour light/dark cycle. The experimental animals were acclimated to the animal room environment for one week, and then randomly divided into three groups of four animals each based on body weight.

Data set [6] can be described thus: Efficacy on DSS induced ulcerative colitis (disease activity index). Format: in vivo, mice. How it is done: In order to establish an ulcerative colitis model, 2.5% DSS powder was mixed with drinking water and provided ad libitum. The DSS powder-containing drinking water was supplied for 5 to 6 days of disease induction period, and after that, normal drinking water was supplied.
The administered compounds of Table 21 were administered orally once daily. Hematochezia, diarrhea and body weight loss were scored according to the criteria shown in the following Table 22, and the scores were summed to calculate a disease activity index (DAI), which is shown in FIG. 4.
Efficacy of Compound (4) on ulcerative colitis was verified in the same manner as in Experimental Example 10-1, except that Compound (4) was used instead of Compound (1), and DSS was administered until day 5, and the drug was administered from day 6.

The target of data set [7] is JAK 1 (Homo sapiens, UniProt P23458). Put plainly: JAK Human TK kinase enzymatic radiometric assay (Eurofins), JAK 1. The settings on record: value close to 100 indicates low JAK activity of the compound.
Chain of JAK 1 (P23458 whole entry): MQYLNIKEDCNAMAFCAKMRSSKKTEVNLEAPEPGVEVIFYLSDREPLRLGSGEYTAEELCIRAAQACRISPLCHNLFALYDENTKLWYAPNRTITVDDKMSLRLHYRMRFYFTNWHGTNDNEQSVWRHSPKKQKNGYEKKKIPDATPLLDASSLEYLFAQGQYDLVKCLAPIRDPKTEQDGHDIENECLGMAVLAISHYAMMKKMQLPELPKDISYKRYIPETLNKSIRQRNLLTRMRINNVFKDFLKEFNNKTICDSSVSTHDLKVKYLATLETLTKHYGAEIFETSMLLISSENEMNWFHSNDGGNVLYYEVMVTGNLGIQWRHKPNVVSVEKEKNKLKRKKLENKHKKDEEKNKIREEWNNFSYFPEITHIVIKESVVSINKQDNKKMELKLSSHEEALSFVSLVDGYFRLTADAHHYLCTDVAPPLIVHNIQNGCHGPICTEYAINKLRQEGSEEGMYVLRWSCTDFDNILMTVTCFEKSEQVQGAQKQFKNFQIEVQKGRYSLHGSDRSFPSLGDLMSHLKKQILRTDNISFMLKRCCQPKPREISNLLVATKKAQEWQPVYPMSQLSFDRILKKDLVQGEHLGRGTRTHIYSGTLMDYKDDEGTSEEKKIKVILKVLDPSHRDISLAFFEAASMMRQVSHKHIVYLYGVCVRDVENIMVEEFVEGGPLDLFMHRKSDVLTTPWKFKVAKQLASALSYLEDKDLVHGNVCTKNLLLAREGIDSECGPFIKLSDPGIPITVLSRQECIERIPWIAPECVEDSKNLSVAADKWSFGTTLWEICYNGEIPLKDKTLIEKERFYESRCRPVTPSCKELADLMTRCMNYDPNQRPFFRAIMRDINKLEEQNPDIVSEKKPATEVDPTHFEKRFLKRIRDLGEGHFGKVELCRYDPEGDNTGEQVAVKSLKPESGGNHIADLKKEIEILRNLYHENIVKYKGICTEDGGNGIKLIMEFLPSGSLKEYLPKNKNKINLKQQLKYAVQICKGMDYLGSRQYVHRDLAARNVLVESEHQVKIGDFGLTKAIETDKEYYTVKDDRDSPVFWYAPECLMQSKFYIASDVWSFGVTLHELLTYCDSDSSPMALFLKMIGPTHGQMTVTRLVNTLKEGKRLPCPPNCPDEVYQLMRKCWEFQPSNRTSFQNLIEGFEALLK
Text: For the compounds of the Examples, JAK activity of each of the compounds was verified using the JAK Human TK Kinase Enzymatic Radiometric Kinase Profiler Assay service provided by Eurofins Scientific.
The activity was verified after inducing a reaction at the JAK 1, 2 and 3 active sites using radioactively labeled ATP.

The source of these data is patent publication EP4741395A1, “NOVEL COMPOUND SENSITIVE TO NITROGEN MONOXIDE AND PHARMACEUTICAL COMPOSITION COMPRISING SAME” (Omniamed Co. Ltd, priority 2023, dated 2025).

Entries after “also recorded” stand apart in the source; their conditions may differ.

As to `C[C@@H]1CCN(C(=O)CC#N)C[C@@H]1N(C)c1ncnc2c1ccn2C(=O)Nc1ccccc1N` [Example 1, N-(2-aminophenyl)-4-(((3R,4R)-1-(2-cyanoacetyl)-4-methylpiperidin-3-yl) (methyl)amino)-7H-pyrrolo[2,3-d]pyrimidine-7-carboxamide], the activity at 10 µM in data set [1] is 77.4 ± 0.52%; in data set [2], 93.6 ± 0.6%; in data set [3], 98.1 ± 0.09%. For the same molecule, the inhibition at 10 µM in data set [4] was found to be 55 ± 8.48%. In data set [5] (male, mouse, in vivo, po), the MTD at 4 days amounted to 1600 mg/kg. For the same molecule, in data set [5] (mice, oral once daily, 200, 400, 800, 1,600 mg/kg escalated daily), the mortality result is listed as “no mortality was observed”. In data set [6] (25 mg/kg oral once daily from day 3, day 7 of the test, p<0.01, FIG. 4), the “efficacy on disease activity index (DAI)” value is given as “statistically significant efficacy was observed”. Further, in data set [6] (25 mg/kg oral once daily, FIGS. 4 and 5), the “efficacy in alleviating ulcerative colitis compared to tofacitinib” value is given as “comparable to that of tofacitinib on average; also recorded: comparable or more superior efficacy”. Also, the “JAK 1 Activity” value in data set [7] (0.1 nM) is 101; in data set [7] (1 nM) it was 102; in data set [7] (10 nM) it was 45; in data set [7] (100 nM), 7.
